# According to patent publication US6737383B1, “Herbicidal oxadiazolidines” (priority 1999, dated 2004):
# Legend:
# soybean = assay: Test B pre/postemergence soybean; format: in vivo, Glycine max; conditions: for Soybean plant response rating (0 to 10 scale): 0 is no effect
# In short: (§1)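 Herbicidal effect was estimated by eye on a ten-point control scale after plants spent twelve to sixteen days in a greenhouse following soil or foliar treatment. Foliar sprays targeted plants at one to four leaves; all doses were formulated in a non-phytotoxic solvent with surfactant.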
# sugar beet = assay: Test B pre/postemergence sugar beet; format: in vivo, Beta vulgaris; conditions: for Sugarbeets plant response rating (0 to 10 scale): 0 is no effect
# In short: as §1
# winter wheat [1] = assay: Test E winter wheat; format: in vivo, Triticum aestivum; conditions: Preemergence; for Wheat (winter) plant response rating (0 to 100 scale): Rate 250 g/ha; for Plant response rating, Wheat (winter): 0 to 100 scale where 0 is no effect and 100 is complete control
# winter wheat [2] = assay: Test E winter wheat; format: in vivo, Triticum aestivum; conditions: Postemergence; for Plant response rating, Wheat (winter): 0 to 100 scale
# In short: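 Visual evaluation versus untreated controls after about 21 to 28 days in the greenhouse. Compound was in a surfactant-containing non-phytotoxic solvent; postemergence plants were treated at the 1- to 4-leaf stage, grown in a 60:40 sandy loam and potting mix blend.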
# Italian ryegrass = assay: Test E Italian ryegrass; format: in vivo, Lolium multiflorum; conditions: Preemergence; for I. Ryegrass plant response rating (0 to 100 scale): Rate 250 g/ha; for Plant response rating, I. Ryegrass: 0 to 100 scale where 0 is no effect and 100 is complete control
# blackgrass = assay: Test E blackgrass; format: in vivo, Alopecurus myosuroides; conditions: Preemergence; for Blackgrass plant response rating (0 to 100 scale): Rate 250 g/ha; for Plant response rating, Blackgrass: 0 to 100 scale where 0 is no effect and 100 is complete control
# wild oat = assay: Test E wild oat; format: in vivo, Avena fatua; conditions: Preemergence; for Wild oat plant response rating (0 to 100 scale): Rate 250 g/ha; for Plant response rating, Wild oat: 0 to 100 scale where 0 is no effect and 100 is complete control
# rape = assay: Test B pre/postemergence rape; format: in vivo, Brassica napus; conditions: for Rape plant response rating (0 to 10 scale): 0 is no effect
# In short: as §1
# winter barley = assay: Test E winter barley; format: in vivo, Hordeum vulgare; conditions: Preemergence; for Barley (winter) plant response rating (0 to 100 scale): Rate 250 g/ha; for Plant response rating, Barley (winter): 0 to 100 scale where 0 is no effect and 100 is complete control
# pigweed = assay: Test B pre/postemergence pigweed; format: in vivo, Amaranthus retroflexus; conditions: for Redroot pigweed plant response rating (0 to 10 scale): 0 is no effect
# In short: as §1
# green foxtail = assay: Test E green foxtail; format: in vivo, Setaria viridis; conditions: Preemergence; for Green foxtail plant response rating (0 to 100 scale): Rate 250 g/ha; for Plant response rating, Green foxtail: 0 to 100 scale where 0 is no effect and 100 is complete control
# [3] = Postemergence, Rate 125 g/ha, scale of 0 to 10 where 0 is no effect and 10 is complete control
# [4] = Preemergence, Rate 62 g/ha, scale of 0 to 10 where 0 is no effect and 10 is complete control
# [5] = Preemergence, Rate 125 g/ha, 10 is complete control
# [6] = Preemergence, Rate 250 g/ha, scale 0 to 10, 0 is no effect, 10 is complete control
# [7] = Preemergence, Rate 500 g/ha, scale 0 to 10 (0 no effect, 10 complete control)
# [8] = Rate 62 g/ha, Postemergence, scale of 0 to 10 where 0 is no effect and 10 is complete control
# [9] = Rate 250 g/ha, Postemergence, scale 0 to 10, 0 is no effect, 10 is complete control
# [10] = Rate 500 g/ha, Postemergence, scale 0 to 10
# [11] = Rate 1000 g/ha, 0 is no effect and 100 is complete control
# [12] = Preemergence, Rate 500 g/ha, scale of 0 to 10 where 0 is no effect and 10 is complete control
# [13] = Rate 125 g/ha, Postemergence, scale 0 to 10
structure (smiles),measurement,setting,value
CC1CCCCC1n1c(=O)on(C(=O)N(c2ccc(F)cc2)C(C)C)c1=O (centres unmarked) [Compound 161],Soybean plant response rating,soybean; [3],2
same,Soybean plant response rating,soybean; [4],0
same,Soybean plant response rating (0 to 10 scale),soybean; [5],0
same,Soybean plant response rating,soybean; [6],0
same,Soybean plant response rating,soybean; [7],0
same,Soybean plant response rating,soybean; [8],2
same,"Plant response rating, Soybean",soybean; [9],4
same,Soybean plant response rating,soybean; [10],4
same,Sugarbeets plant response rating,sugar beet; [3],2
same,Sugarbeets plant response rating,sugar beet; [4],0
same,Sugarbeets plant response rating (0 to 10 scale),sugar beet; [5],0
same,Sugarbeets plant response rating,sugar beet; [6],0
same,Sugarbeets plant response rating,sugar beet; [7],0
same,Sugarbeets plant response rating,sugar beet; [8],0
same,"Plant response rating, Sugarbeets",sugar beet; [9],4
same,Sugarbeets plant response rating,sugar beet; [10],7
same,Wheat (winter) plant response rating (0 to 100 scale),winter wheat [1],10
same,"Plant response rating, Wheat (winter)",winter wheat [1]; Rate 500 g/ha,20
same,"Plant response rating, Wheat (winter)",winter wheat [1]; Rate 1000 g/ha,45
same,"Plant response rating, Wheat (winter)",winter wheat [2]; [11],50
same,"Plant response rating, Wheat (winter)","winter wheat [2]; Rate 500 g/ha, 0 no effect, 100 complete control",35
same,Wheat (winter) plant response rating,"winter wheat [2]; Rate 250 g/ha, 0 to 100 scale where 0 is no effect and 100 is complete control",30
same,I. Ryegrass plant response rating (0 to 100 scale),Italian ryegrass,60
same,"Plant response rating, I. Ryegrass",Italian ryegrass; Rate 500 g/ha,65
same,"Plant response rating, I. Ryegrass",Italian ryegrass; Rate 1000 g/ha,85
same,Blackgrass plant response rating (0 to 100 scale),blackgrass,30
same,"Plant response rating, Blackgrass",blackgrass; Rate 500 g/ha,50
same,"Plant response rating, Blackgrass",blackgrass; Rate 1000 g/ha,55
same,Wild oat plant response rating (0 to 100 scale),wild oat,50
same,"Plant response rating, Wild oat",wild oat; Rate 500 g/ha,50
same,"Plant response rating, Wild oat",wild oat; Rate 1000 g/ha,60
same,Rape plant response rating,rape; [3],0
same,Rape plant response rating,rape; [4],0
same,Rape plant response rating (0 to 10 scale),rape; [5],0
same,Rape plant response rating,rape; [6],0
same,Rape plant response rating,rape; [7],3
same,Rape plant response rating,rape; [8],0
same,"Plant response rating, Rape",rape; [9],0
same,Rape plant response rating,rape; [10],4
same,Barley (winter) plant response rating (0 to 100 scale),winter barley,30
same,"Plant response rating, Barley (winter)",winter barley; Rate 500 g/ha,40
same,"Plant response rating, Barley (winter)",winter barley; Rate 1000 g/ha,40
same,Redroot pigweed plant response rating,pigweed; [3],0
same,Redroot pigweed plant response rating,pigweed; [4],0
same,Redroot pigweed plant response rating (0 to 10 scale),pigweed; [5],0
same,Redroot pigweed plant response rating,pigweed; [6],4
same,Redroot pigweed plant response rating,pigweed; [7],10
same,Redroot pigweed plant response rating,pigweed; [8],0
same,"Plant response rating, Redroot pigweed",pigweed; [9],4
same,Redroot pigweed plant response rating,pigweed; [10],5
same,Green foxtail plant response rating (0 to 100 scale),green foxtail,60
same,"Plant response rating, Green foxtail",green foxtail; Rate 500 g/ha,70
same,"Plant response rating, Green foxtail",green foxtail; Rate 1000 g/ha,90
Cc1ccccc1-n1c(=O)on(C(=O)N(c2ccccc2F)C(C)C)c1=O [Compound 204],Soybean plant response rating,soybean; [4],0
same,Soybean plant response rating (0 to 10 scale),soybean; [5],0
same,Soybean plant response rating,soybean; [6],0
same,"Plant response rating, Soybean",soybean; [12],0
same,Soybean plant response rating,soybean; [8],1
same,Soybean plant response rating,soybean; [13],1
same,"Plant response rating (0 to 10; 0 is no effect, 10 is complete control), Soybean","soybean; Rate 250 g/ha, Postemergence",1
same,Soybean plant response rating,soybean; [10],7
same,Sugarbeets plant response rating,sugar beet; [4],0
same,Sugarbeets plant response rating (0 to 10 scale),sugar beet; [5],0
same,Sugarbeets plant response rating,sugar beet; [6],0
same,"Plant response rating, Sugarbeets",sugar beet; [12],0
same,Sugarbeets plant response rating,sugar beet; [8],0
same,Sugarbeets plant response rating,sugar beet; [13],0
same,"Plant response rating (0 to 10; 0 is no effect, 10 is complete control), Sugarbeets","sugar beet; Rate 250 g/ha, Postemergence",0
same,Sugarbeets plant response rating,sugar beet; [10],0
same,Wheat (winter) plant response rating (0 to 100 scale),winter wheat [1],30
same,"Plant response rating, Wheat (winter)",winter wheat [1]; Rate 1000 g/ha,50
same,"Plant response rating, Wheat (winter)",winter wheat [2]; [11],30
same,I. Ryegrass plant response rating (0 to 100 scale),Italian ryegrass,50
same,"Plant response rating, I. Ryegrass",Italian ryegrass; Rate 1000 g/ha,65
same,Blackgrass plant response rating (0 to 100 scale),blackgrass,55
same,"Plant response rating, Blackgrass",blackgrass; Rate 1000 g/ha,95
same,Wild oat plant response rating (0 to 100 scale),wild oat,50
same,"Plant response rating, Wild oat",wild oat; Rate 1000 g/ha,50
same,Rape plant response rating,rape; [4],0
same,Rape plant response rating (0 to 10 scale),rape; [5],0
same,Rape plant response rating,rape; [6],0
same,"Plant response rating, Rape",rape; [12],3
same,Rape plant response rating,rape; [8],0
same,Rape plant response rating,rape; [13],0
same,"Plant response rating (0 to 10; 0 is no effect, 10 is complete control), Rape","rape; Rate 250 g/ha, Postemergence",0
same,Rape plant response rating,rape; [10],0
same,Barley (winter) plant response rating (0 to 100 scale),winter barley,50
same,"Plant response rating, Barley (winter)",winter barley; Rate 1000 g/ha,30
same,Redroot pigweed plant response rating,pigweed; [4],0
same,Redroot pigweed plant response rating (0 to 10 scale),pigweed; [5],0
same,Redroot pigweed plant response rating,pigweed; [6],0
same,"Plant response rating, Redroot pigweed",pigweed; [12],0
same,Redroot pigweed plant response rating,pigweed; [8],0
same,Redroot pigweed plant response rating,pigweed; [13],0
same,"Plant response rating (0 to 10; 0 is no effect, 10 is complete control), Redroot pigweed","pigweed; Rate 250 g/ha, Postemergence",4
same,Redroot pigweed plant response rating,pigweed; [10],7
same,Green foxtail plant response rating (0 to 100 scale),green foxtail,75
same,"Plant response rating, Green foxtail",green foxtail; Rate 1000 g/ha,100
